Measured values: ChEMBL document CHEMBL4304788, “Treatment of Cancer and Alzheimer's Disease by PROTAC Degradation of EGFR” (ACS Med Chem Lett, 2019)
pEC50: −log10 of the molar value.

Target: Protein cereblon/Epidermal growth factor receptor (Homo sapiens, UniProt P00533+Q96SW2, L858R/T790M)
Assay: Protac activity at native cereblon/EGFR T790M/L858R mutant (unknown origin) transfected in mouse Baf3 cells assessed as reduction in cell proliferation by MTS assay
Assay type: cell-based

Protein cereblon/Epidermal growth factor receptor, sequence (P00533 25-1210 T790M/L858R limits assumed, stated change not applied): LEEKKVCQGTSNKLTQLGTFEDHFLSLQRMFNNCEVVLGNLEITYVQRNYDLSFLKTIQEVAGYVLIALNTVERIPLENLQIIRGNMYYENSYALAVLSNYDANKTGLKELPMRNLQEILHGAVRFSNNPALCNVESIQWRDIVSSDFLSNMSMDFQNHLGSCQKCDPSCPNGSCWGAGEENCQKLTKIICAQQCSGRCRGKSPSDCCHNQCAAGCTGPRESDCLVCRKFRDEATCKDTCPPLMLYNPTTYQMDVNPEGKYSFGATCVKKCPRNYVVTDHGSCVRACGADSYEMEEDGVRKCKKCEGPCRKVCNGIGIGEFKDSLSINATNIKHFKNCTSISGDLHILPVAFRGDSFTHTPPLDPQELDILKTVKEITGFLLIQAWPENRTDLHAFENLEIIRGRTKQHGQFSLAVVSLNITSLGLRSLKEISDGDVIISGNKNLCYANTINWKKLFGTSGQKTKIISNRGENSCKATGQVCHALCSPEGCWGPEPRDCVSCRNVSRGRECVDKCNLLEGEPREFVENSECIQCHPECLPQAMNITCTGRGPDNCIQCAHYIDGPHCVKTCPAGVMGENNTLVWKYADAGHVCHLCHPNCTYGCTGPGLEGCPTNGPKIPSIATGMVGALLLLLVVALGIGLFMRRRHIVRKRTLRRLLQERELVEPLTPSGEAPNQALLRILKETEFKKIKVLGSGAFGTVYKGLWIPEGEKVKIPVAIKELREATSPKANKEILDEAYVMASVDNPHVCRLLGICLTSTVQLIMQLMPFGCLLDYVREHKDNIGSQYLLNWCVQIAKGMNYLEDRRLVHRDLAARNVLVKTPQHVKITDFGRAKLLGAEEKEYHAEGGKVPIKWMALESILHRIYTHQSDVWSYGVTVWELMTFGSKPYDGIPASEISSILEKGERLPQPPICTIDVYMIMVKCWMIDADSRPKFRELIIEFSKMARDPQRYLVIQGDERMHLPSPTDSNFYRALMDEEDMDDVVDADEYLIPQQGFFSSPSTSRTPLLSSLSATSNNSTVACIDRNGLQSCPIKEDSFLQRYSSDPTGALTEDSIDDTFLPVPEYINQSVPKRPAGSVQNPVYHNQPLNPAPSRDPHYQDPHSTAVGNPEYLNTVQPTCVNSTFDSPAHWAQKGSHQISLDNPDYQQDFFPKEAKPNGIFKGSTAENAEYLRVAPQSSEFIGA
Protein cereblon/Epidermal growth factor receptor, sequence (Q96SW2 whole entry, stated change not applied): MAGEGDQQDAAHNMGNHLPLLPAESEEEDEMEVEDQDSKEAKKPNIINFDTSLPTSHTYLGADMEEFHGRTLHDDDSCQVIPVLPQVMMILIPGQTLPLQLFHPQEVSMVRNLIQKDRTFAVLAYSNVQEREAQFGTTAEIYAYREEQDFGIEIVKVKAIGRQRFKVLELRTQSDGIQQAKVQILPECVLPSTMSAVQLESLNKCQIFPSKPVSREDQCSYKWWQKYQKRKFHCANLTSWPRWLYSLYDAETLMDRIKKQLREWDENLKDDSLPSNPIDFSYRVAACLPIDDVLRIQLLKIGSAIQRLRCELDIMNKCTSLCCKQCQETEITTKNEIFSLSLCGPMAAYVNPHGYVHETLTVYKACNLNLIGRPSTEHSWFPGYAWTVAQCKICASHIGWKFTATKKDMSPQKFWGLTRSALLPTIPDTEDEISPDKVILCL

O=C1CCC(N2C(=O)c3cccc(NCCOCCOCCOCCOCCN4CCN(c5ccc(-c6ccc7c(c6)C(=O)N(C(C(=O)Nc6nccs6)c6ccccc6)C7)cc5)CC4)c3C2=O)C(=O)N1 (centres undefined)
pEC50: > 6.30

O=C1CCC(N2C(=O)c3cccc(NCCOCCOCCOCCN4CCN(c5ccc(-c6ccc7c(c6)C(=O)N(C(C(=O)Nc6nccs6)c6ccccc6)C7)cn5)CC4)c3C2=O)C(=O)N1 (centres undefined)
pEC50: > 6.30

O=C1CCC(N2C(=O)c3cccc(NCCOCCOCCOCCN4CCN(c5ccc(-c6ccc7c(c6)C(=O)N(C(C(=O)Nc6nccs6)c6ccccc6)C7)cc5)CC4)c3C2=O)C(=O)N1 (centres undefined)
pEC50: > 6.30

O=C1CCC(N2C(=O)c3cccc(NCCOCCOCCOCCC(=O)N4CCN(c5ccc(-c6ccc7c(c6)C(=O)N(C(C(=O)Nc6nccs6)c6ccccc6)C7)cc5)CC4)c3C2=O)C(=O)N1 (centres undefined)
pEC50: > 6.30
